Experimental data as given in ChEMBL document CHEMBL1177777, “Novel pyridobenzimidazole derivatives exhibiting antifungal activity by the inhibition of beta-1,6-glucan synthesis” (2010).
In brackets after ≈: the same amount, converted by molar mass. Activity calls are given as the source filed them. The calls are words filed in the database; no cut-off is given here.

Tests used:
Candida albicans [1] = test: Antifungal activity against Candida albicans ATCC 24433 after 24 hrs by microdilution method; assay type: functional; conditions: ATCC 24433, 24 h
Nakaseomyces glabratus [2] = test: Antifungal activity against Candida glabrata IFO 0622 after 24 hrs by microdilution method; assay type: functional; conditions: IFO 0622, 24 h
Pichia kudriavzevii [3] = test: Antifungal activity against Candida krusei TIMM 0269 after 24 hrs by microdilution method; assay type: functional; conditions: TIMM 0269, 24 h
Candida tropicalis [4] = test: Antifungal activity against Candida tropicalis TIMM 0313 after 24 hrs by microdilution method; assay type: functional; conditions: TIMM 0313, 24 h
Aspergillus fumigatus [5] = test: Antifungal activity against Aspergillus fumigatus ATCC 36607 after 24 hrs by microdilution method; assay type: functional; conditions: ATCC 36607, 24 h
Nakaseomyces glabratus [6] = test: Antifungal activity against Candida glabrata IFO 0622 assessed as inhibition of beta-1,6-glucan synthesis; assay type: functional, organism-based
Pichia kudriavzevii [7] = test: Antifungal activity against Candida krusei TIMM 0269 assessed as inhibition of beta-1,6-glucan synthesis; assay type: functional, organism-based
Candida tropicalis [8] = test: Antifungal activity against Candida tropicalis TIMM 0313 assessed as inhibition of beta-1,6-glucan synthesis; assay type: functional, organism-based
Candida albicans [9] = test: Antifungal activity against Candida albicans ATCC 24433 assessed as inhibition of beta-1,6-glucan synthesis; assay type: functional, organism-based
Aspergillus fumigatus [10] = test: Antifungal activity against Aspergillus fumigatus ATCC 36607 assessed as inhibition of beta-1,6-glucan synthesis; assay type: functional, organism-based

Cc1c(CCO)c(N2CC[C@H](N(C)C)C2)n2c(nc3ccccc32)c1C#N
MIC (Candida albicans [1]): > 128 µg/mL | MIC (Nakaseomyces glabratus [2]): 32 µg/mL (≈ 88 µM) | MIC (Pichia kudriavzevii [3]): 16 µg/mL (≈ 44 µM) | MIC (Candida tropicalis [4]): > 128 µg/mL | MIC (Aspergillus fumigatus [5]): > 128 µg/mL

CCc1c(C)c(C#N)c2nc3ccccc3n2c1NCCN
MIC (Candida albicans [1]): > 128 µg/mL | MIC (Nakaseomyces glabratus [2]): 4 µg/mL (≈ 13.6 µM) | MIC (Pichia kudriavzevii [3]): 32 µg/mL (≈ 109 µM) | MIC (Candida tropicalis [4]): > 128 µg/mL | MIC (Aspergillus fumigatus [5]): > 128 µg/mL

Cc1c(F)c(N2CC[C@H](N(C)C)C2)n2c(nc3ccccc32)c1C#N
MIC (Candida albicans [1]): > 128 µg/mL | MIC (Nakaseomyces glabratus [2]): 4 µg/mL (≈ 11.9 µM) | MIC (Pichia kudriavzevii [3]): 16 µg/mL (≈ 47.4 µM) | MIC (Candida tropicalis [4]): > 128 µg/mL | MIC (Aspergillus fumigatus [5]): > 128 µg/mL

CCc1c(C)c(C#N)c2nc3ccccc3n2c1N1CC[C@H](N(C)C)C1
MIC (Candida albicans [1]): > 128 µg/mL | MIC (Nakaseomyces glabratus [2]): 0.5 µg/mL (≈ 1.44 µM) | MIC (Pichia kudriavzevii [3]): 2 µg/mL (≈ 5.76 µM) | MIC (Candida tropicalis [4]): 32 µg/mL (≈ 92.1 µM) | MIC (Aspergillus fumigatus [5]): > 128 µg/mL

CCc1c(C)c(C#N)c2nc3ccccc3n2c1NCCCN(C)C
MIC (Candida albicans [1]): > 128 µg/mL | MIC (Nakaseomyces glabratus [2]): > 128 µg/mL | MIC (Pichia kudriavzevii [3]): > 128 µg/mL | MIC (Candida tropicalis [4]): > 128 µg/mL | MIC (Aspergillus fumigatus [5]): > 128 µg/mL

CN(C)[C@H]1CCN(c2c(-c3ccccc3)cc(C#N)c3nc4ccccc4n23)C1
MIC (Candida albicans [1]): > 128 µg/mL | MIC (Nakaseomyces glabratus [2]): ≤ 0.125 µg/mL | MIC (Pichia kudriavzevii [3]): 2 µg/mL (≈ 5.24 µM) | MIC (Candida tropicalis [4]): 8 µg/mL (≈ 21 µM) | MIC (Aspergillus fumigatus [5]): > 128 µg/mL

CCc1c(C)c(C#N)c2nc3ccccc3n2c1N1CC[C@@H](N(C)C)C1
MIC (Candida albicans [1]): > 128 µg/mL | MIC (Nakaseomyces glabratus [2]): 1 µg/mL (≈ 2.88 µM) | MIC (Pichia kudriavzevii [3]): 16 µg/mL (≈ 46 µM) | MIC (Candida tropicalis [4]): 64 µg/mL (≈ 184 µM) | MIC (Aspergillus fumigatus [5]): > 128 µg/mL

CCc1c(C)c(C#N)c2nc3ccccc3n2c1N1CCCC1
MIC (Candida albicans [1]): > 64 µg/mL | MIC (Nakaseomyces glabratus [2]): > 64 µg/mL | MIC (Pichia kudriavzevii [3]): > 64 µg/mL | MIC (Candida tropicalis [4]): > 64 µg/mL | MIC (Aspergillus fumigatus [5]): > 64 µg/mL

Cc1cc(N2CC[C@H](N(C)C)C2)n2c(nc3ccccc32)c1C#N
MIC (Candida albicans [1]): > 128 µg/mL | MIC (Nakaseomyces glabratus [2]): 8 µg/mL (≈ 25 µM) | MIC (Pichia kudriavzevii [3]): 32 µg/mL (≈ 100 µM) | MIC (Candida tropicalis [4]): > 128 µg/mL | MIC (Aspergillus fumigatus [5]): > 128 µg/mL

CC(=O)OCCc1c(C)c(C#N)c2nc3ccccc3n2c1N1CC[C@H](N(C)C)C1
MIC (Candida albicans [1]): > 128 µg/mL | MIC (Nakaseomyces glabratus [2]): 1 µg/mL (≈ 2.47 µM) | MIC (Pichia kudriavzevii [3]): 4 µg/mL (≈ 9.86 µM) | MIC (Candida tropicalis [4]): 16 µg/mL (≈ 39.5 µM) | MIC (Aspergillus fumigatus [5]): > 128 µg/mL

CCc1c(C)c(C#N)c2nc3ccccc3n2c1NCCN(CC)CC
MIC (Candida albicans [1]): > 128 µg/mL | MIC (Nakaseomyces glabratus [2]): 1 µg/mL (≈ 2.86 µM) | MIC (Pichia kudriavzevii [3]): 4 µg/mL (≈ 11.4 µM) | MIC (Candida tropicalis [4]): > 128 µg/mL | MIC (Aspergillus fumigatus [5]): > 128 µg/mL

CCc1c(C)c(C#N)c2nc3ccccc3n2c1N1CCN(C)CC1
MIC (Candida albicans [1]): > 32 µg/mL | MIC (Nakaseomyces glabratus [2]): > 32 µg/mL | MIC (Pichia kudriavzevii [3]): > 32 µg/mL | MIC (Candida tropicalis [4]): > 32 µg/mL | MIC (Aspergillus fumigatus [5]): > 32 µg/mL

CCc1c(C)c(C(N)=O)c2nc3ccccc3n2c1NCCN(C)CC
MIC (Candida albicans [1]): > 128 µg/mL | MIC (Nakaseomyces glabratus [2]): > 128 µg/mL | MIC (Pichia kudriavzevii [3]): > 128 µg/mL | MIC (Candida tropicalis [4]): > 128 µg/mL | MIC (Aspergillus fumigatus [5]): > 128 µg/mL

CCc1c(C)c(C#N)c2nc3ccccc3n2c1N1CCC(N(C)C)CC1
MIC (Candida albicans [1]): > 128 µg/mL | MIC (Nakaseomyces glabratus [2]): > 128 µg/mL | MIC (Pichia kudriavzevii [3]): > 128 µg/mL | MIC (Candida tropicalis [4]): > 128 µg/mL | MIC (Aspergillus fumigatus [5]): > 128 µg/mL

OC(Cn1cncn1)(Cn1cncn1)c1ccc(F)cc1F [FLUCONAZOLE]
MIC (Candida albicans [1]): 0.25 µg/mL (≈ 0.816 µM) | MIC (Nakaseomyces glabratus [2]): 2 µg/mL (≈ 6.53 µM) | MIC (Pichia kudriavzevii [3]): 16 µg/mL (≈ 52.2 µM) | MIC (Candida tropicalis [4]): 0.25 µg/mL (≈ 0.816 µM) | MIC (Aspergillus fumigatus [5]): > 64 µg/mL

Cc1c(-c2ccccc2)c(N2CC[C@H](N(C)C)C2)n2c(nc3ccccc32)c1C#N
MIC (Candida albicans [1]): > 128 µg/mL | inhibition (Nakaseomyces glabratus [6]): Active | inhibition (Pichia kudriavzevii [7]): Active | MIC (Nakaseomyces glabratus [2]): ≤ 0.125 µg/mL | inhibition (Candida tropicalis [8]): Active | MIC (Pichia kudriavzevii [3]): ≤ 0.125 µg/mL | MIC (Candida tropicalis [4]): 0.5 µg/mL (≈ 1.26 µM) | MIC (Aspergillus fumigatus [5]): > 128 µg/mL | inhibition (Candida albicans [9]): Active | inhibition (Aspergillus fumigatus [10]): Active

CCc1c(-c2ccccc2)c(C#N)c2nc3ccccc3n2c1N1CC[C@H](N(C)C)C1
MIC (Candida albicans [1]): > 128 µg/mL | MIC (Nakaseomyces glabratus [2]): > 128 µg/mL | MIC (Pichia kudriavzevii [3]): > 128 µg/mL | MIC (Candida tropicalis [4]): > 128 µg/mL | MIC (Aspergillus fumigatus [5]): > 128 µg/mL

CCCCc1c(C)c(C#N)c2nc3ccccc3n2c1N1CC[C@H](N(C)C)C1
MIC (Candida albicans [1]): > 128 µg/mL | MIC (Nakaseomyces glabratus [2]): ≤ 0.125 µg/mL | MIC (Pichia kudriavzevii [3]): 0.5 µg/mL (≈ 1.33 µM) | MIC (Candida tropicalis [4]): 0.5 µg/mL (≈ 1.33 µM) | MIC (Aspergillus fumigatus [5]): > 128 µg/mL

CCCNc1c(CC)c(C)c(C#N)c2nc3ccccc3n12
MIC (Candida albicans [1]): > 128 µg/mL | MIC (Nakaseomyces glabratus [2]): > 128 µg/mL | MIC (Pichia kudriavzevii [3]): > 128 µg/mL | MIC (Candida tropicalis [4]): > 128 µg/mL | MIC (Aspergillus fumigatus [5]): > 128 µg/mL
